In article PMC4310350 (Drug Design, Development and Therapy, 2015):
Entries after “also recorded” stand apart in the source; their conditions may differ.

Columns and labels:
OAT3 = molecular target: T1, OAT3 (Homo sapiens, UniProt Q8TCC7); test: Uptake in HEK293 cells overexpressing OAT3; type: in vitro ADME
T1 sequence (Q8TCC7 1-542): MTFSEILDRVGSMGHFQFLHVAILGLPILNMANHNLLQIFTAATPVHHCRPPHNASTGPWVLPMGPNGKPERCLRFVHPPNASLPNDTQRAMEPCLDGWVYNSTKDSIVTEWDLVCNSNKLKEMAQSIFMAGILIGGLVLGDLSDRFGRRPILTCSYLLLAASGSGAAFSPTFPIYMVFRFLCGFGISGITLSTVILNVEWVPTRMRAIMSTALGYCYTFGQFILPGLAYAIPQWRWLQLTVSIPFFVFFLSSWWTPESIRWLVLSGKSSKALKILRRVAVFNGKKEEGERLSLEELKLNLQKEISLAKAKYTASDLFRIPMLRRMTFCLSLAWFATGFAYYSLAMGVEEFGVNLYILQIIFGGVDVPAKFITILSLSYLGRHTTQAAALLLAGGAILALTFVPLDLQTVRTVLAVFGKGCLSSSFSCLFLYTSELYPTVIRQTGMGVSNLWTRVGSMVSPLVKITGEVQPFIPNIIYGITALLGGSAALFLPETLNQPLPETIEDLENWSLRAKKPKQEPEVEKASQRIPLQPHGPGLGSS

BCRP = molecular target: T2, BCRP (Homo sapiens, UniProt Q9UNQ0); test: A-to-B and B-to-A transport in LLC-PK1 cells overexpressing BCRP; type: in vitro ADME; conditions: BCRP, efflux
T2 sequence (Q9UNQ0 1-655): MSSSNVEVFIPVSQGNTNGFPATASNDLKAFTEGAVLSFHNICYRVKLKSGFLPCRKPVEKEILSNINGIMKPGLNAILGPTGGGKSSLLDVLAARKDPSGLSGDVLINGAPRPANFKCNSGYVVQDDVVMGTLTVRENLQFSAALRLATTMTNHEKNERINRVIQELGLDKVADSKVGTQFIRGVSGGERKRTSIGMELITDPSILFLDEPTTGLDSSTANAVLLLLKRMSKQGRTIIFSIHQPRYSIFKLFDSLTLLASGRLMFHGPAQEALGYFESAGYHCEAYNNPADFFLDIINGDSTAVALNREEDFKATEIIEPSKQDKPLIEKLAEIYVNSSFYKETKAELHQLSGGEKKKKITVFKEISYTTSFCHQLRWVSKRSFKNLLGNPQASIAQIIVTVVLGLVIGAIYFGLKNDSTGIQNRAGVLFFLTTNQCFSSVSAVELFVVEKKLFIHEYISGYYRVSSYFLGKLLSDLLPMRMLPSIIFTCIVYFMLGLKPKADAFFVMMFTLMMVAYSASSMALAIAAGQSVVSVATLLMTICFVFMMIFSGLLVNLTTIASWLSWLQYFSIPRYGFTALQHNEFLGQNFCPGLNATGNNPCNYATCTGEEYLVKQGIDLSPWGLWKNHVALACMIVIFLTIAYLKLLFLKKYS

For `O=C(O[C@H]1[C@@H]2C=CO[C@@H](O[C@@H]3O[C@H](CO)[C@@H](O)[C@H](O)[C@H]3O)[C@@H]2[C@@]2(CO)O[C@@H]12)c1ccc(O)cc1` [catalposide], which “Clint for OAT3 relative to OATP1B1” value (OAT3; OAT3 vs OATP1B1) is on record?
The value was 31.8 fold.

What about the “Clint for OAT3 relative to OATP1B3” value (OAT3; OAT3 vs OATP1B3) of the same compound?
The value was 32.7 fold.

What about the Substrate (BCRP) of the same compound?
The Substrate was “not involved; also recorded: not a substrate”.
